Test results: patent US12150927B2, “Use of cannabidiolic acid in the treatment of autism spectrum disorder and associated disorders” (GW Research Limited, priority 2016, dated 2024)
Where “and” joins values, the source holds several entries; their conditions need not be identical. Equal values may be shown once.

What was measured:
Ube3am-/p+ (AS) mice [1] = assay: Tail suspension test, mouse model of Angelman syndrome; format: in vivo; conditions: CBDA 20 mg/kg i.p., vs AS vehicle, FIG. 15
Description: (§1) Heterozygous mice with maternal deficiency of Ube3A (Ube3am−/p+) and wild type (Ube3am+/p+) were purchased from The Jackson Laboratory (Jackson code: B6.129S7-Ube3a tm1Alb/J) and maintained in a C57BL/6 background.
(§2) Drugs were dissolved in 1:1:18 ethanol:cremophor:0.9% saline, for intraperitoneal (i.p.) administration. Drug treatment was performed daily for 35 days. CBDA was administered at 20 mg/kg.
Tail suspension: The tail suspension test assesses depressive-like behaviour in mice. Mice were individually suspended by the tail on a horizontal bar (50 cm from floor) using adhesive tape placed approximately 4 cm from the tip of the tail. The duration of immobility was recorded in seconds over a period of 6 minutes by a time recorder. Immobility time was defined as the absence of escape-oriented behaviour.

Ube3am-/p+ (AS) mice [2] = assay: Clasping test, mouse model of Angelman syndrome; format: in vivo; conditions: chronic treatment (30 days) CBDA 20 mg/kg i.p., 10 weeks of age, vs AS vehicle, FIG. 12
Description: as §1
Drugs were dissolved in 1:1:18 ethanol:cremophor:0.9% saline, for intraperitoneal (i.p.) administration. […] CBDA was administered at 20 mg/kg.
Clasping: The clasping test assesses ataxia in mice. Mice were suspended by the base of the tail and their behaviours were recorded for 30 seconds. The time for which the mice clasped their hind limbs was recorded. The time was then scored as follows: 4, 15-30 s, 3, 10-15 s, 2, 5-10 s, 1, 0-5 s and 0, 0 s

Ube3am-/p+ (AS) mice [3] = assay: Novel object recognition, mouse model of Angelman syndrome; format: in vivo; conditions: CBDA 20 mg/kg i.p., age 7-8 weeks, vs AS vehicle
Description: as §1, §2
Novel Object Recognition: The novel object recognition assesses recognition memory in mice. The experiment started with the habituation period, during which mice were allowed to freely explore for 1 hour the apparatus which consists of a rectangular open box (40×30×30 cm width×length×height) made of grey polyvinyl chloride (PVC) illuminated by a dim light. The day after each mouse was allowed to explore two identical objects positioned in the back left and right corners for 5 min (acquisition). A video camera recorded the time spent on exploration of each object. […] The behaviour of mice was analyzed by an observer blind to the treatment. Data are expressed as percentage of recognition index (RI %), which was calculated as the percentage of the time spent exploring the novel object/time spent exploring the novel object+time spent exploring the familiar object×100.

[4] = system: offspring of VPA-exposed rats; assay: Sociability and preference for social novelty, 3-chamber apparatus, rat VPA model; format: in vivo, Sprague-Dawley rats
Description: Pregnant Sprague-Dawley rats (Charles River, Calco, Italy), received a single intraperitoneal injection of 500 mg/kg sodium valproate on the 12.5 day after conception, and control females were injected with physiological saline at the same time. Sodium valproate (Sigma Aldrich, Milan, IT) was dissolved in saline at a concentration of 250 mg/ml.
CBDA was dissolved in ethanol, cremophor and saline (1:1:18). Symptomatic treatment with CBDA at doses of 2 and 20 mg/kg/day i.p. was performed starting from PND 34 (early adolescence) till 56 (early adulthood), both in male and female offspring of dams injected with VPA 500 mg/kg (or vehicle) on day 12.5 after conception. At PND 56, a series of behavioural tests was performed in order to assess the effect of chronic CBDA on sociability, social novelty, short-term memory, locomotion and stereotyped/repetitive behaviours.
Sociability and preference for social novelty: These behaviours were investigated in a 3-chamber apparatus which allows for the measurement of social approach and social preference. In brief, animals were placed into a novel arena (80 cm×31.5 cm) composed of three communicating chambers separated by Perspex walls with central openings allowing access to all chambers for 5 min.
Following this acclimatisation period, animals were briefly confined to the central chamber while an unfamiliar rat confined in a small wire cage was placed in one of the outer chambers. An identical empty wire cage was placed in the other chamber. […] Time spent engaging in investigatory behaviour with the rat was evaluated with the aid of Anymaze program (Ugo Basile, Italy) in order to examine social approach.
To investigate the preference for social novelty, a novel unfamiliar rat was then placed in the empty cage and the test animal was then allowed to explore the arena/chambers for a further 5 min. Time spent engaging in investigatory behaviour with the novel unfamiliar rat was evaluated with the aid of Anymaze program (Ugo Basile, Italy) in order to examine preference for social novelty.

MeCP2 KO and WT mice = assay: Survival, mouse model of Rett syndrome; format: in vivo
Description: (§3) CBDA was administered daily at the dose of 2 or 20 mg/kg i.p. starting from PND 28 and the following signs were scored every other day: hindlimb clasping (indication of motor imbalance), tremor, gait (measure of coordination), breathing, mobility and general condition.
(§4) The CBDA was dissolved in ethanol, cremophor and saline (1:1:18). Starting from PND 28, mice received a daily intraperitoneal injection of CBDA (or vehicle) at the dose of 2 or 20 mg/kg. Animals were then scored every other day to evaluate the effect of CBDA treatment on motor symptoms (hindlimb clasping, gait, mobility) as well as neurological signs and general conditions (breathing abnormalities, tremors and general condition) present in MeCP2 knockout (KO) mice.

MeCP2 KO mice = assay: Body weight gain, mouse model of Rett syndrome; format: in vivo; conditions: CBDA 2 and 20 mg/kg i.p. daily, PND 28-66, FIG. 5
Description: as §3, §4

C=C(C)[C@@H]1CCC(C)=C[C@H]1c1c(O)cc(CCCCC)c(C(=O)O)c1O [CBDA, Cannabidiolic acid]
duration of immobility time (Ube3am-/p+ (AS) mice [1]): significantly reduced the duration of immobility time | clasping duration (Ube3am-/p+ (AS) mice [2]): significantly reduced clasping duration | discrimination index (Ube3am-/p+ (AS) mice [3]): increased the discrimination index | preference index ([4]; CBDA 20 mg/kg/day i.p. PND 34-56, VPA rats, FIG. 1C): significantly counteracted the impairment in sociability | social novelty preference ([4]; CBDA 20 mg/kg/day i.p. PND 34-56, male VPA rats, FIG. 1A): statistically significant effect in males on restoration of social novelty preference | sociability ([4]; CBDA at both doses (2 and 20 mg/kg/day i.p.) PND 34-56, VPA rats, FIG. 1B): significantly reduced the impairment in sociability | survival rate (MeCP2 KO and WT mice; MeCP2 KO mice, chronic CBDA 20 mg/kg i.p., PND 67 (vehicle KO 57.14%), FIG. 6): 85.14% and 85% | lethality (MeCP2 KO and WT mice; WT mice treated with CBDA (2 and 20 mg/kg i.p. daily)): No lethality | body weight gain (MeCP2 KO mice): did not prevent the reduction in body weight
